± gives the expanded uncertainty stated by the source.
Conditions: 101.33 kPa, Liquid, Vibrating tube method

SMILES | mass density (298.15 K) [kg/m3] | mass density (303.15 K) [kg/m3] | mass density (308.14 K) [kg/m3] | mass density (313.15 K) [kg/m3] | mass density (318.15 K) [kg/m3] | mass density (323.14 K) [kg/m3] | mass density (328.14 K) [kg/m3] | mass density (333.14 K) [kg/m3] | mass density (338.14 K) [kg/m3] | mass density (343.14 K) [kg/m3] | mass density (348.15 K) [kg/m3] | mass density (278.16 K) [kg/m3] | mass density (283.14 K) [kg/m3] | mass density (288.14 K) [kg/m3] | mass density (293.15 K) [kg/m3] | mass density (298.14 K) [kg/m3] | mass density (303.14 K) [kg/m3] | mass density (313.14 K) [kg/m3] | mass density (318.14 K) [kg/m3] | mass density (338.15 K) [kg/m3]
CCCCCCCC[N+]1(C)CCCC1.O=S(=O)([N-]S(=O)(=O)C(F)(F)F)C(F)(F)F | 1291.2 ± 12 | 1286.9 ± 12 | 1283 ± 12 | 1279.1 ± 12 | 1275.1 ± 11 | 1271.4 ± 11 | 1267.5 ± 11 | 1263.7 ± 11 | 1259.7 ± 11 | 1255.7 ± 11 | 1251.7 ± 11 |  |  |  |  |  |  |  |  | 
CCCCCC[N+]1(C)CCCC1.O=S(=O)([N-]S(=O)(=O)C(F)(F)F)C(F)(F)F |  |  | 1326.8 ± 12 |  |  | 1314.1 ± 12 | 1309.9 ± 12 | 1305.6 ± 12 |  | 1297.1 ± 12 |  | 1352.1 ± 13 | 1347.7 ± 13 | 1343.4 ± 13 | 1339.5 ± 13 | 1335.3 ± 13 | 1331.1 ± 12 | 1322.6 ± 12 | 1318.3 ± 12 | 1301.4 ± 12
